Reference: patent US20230348456A1, “QUINAZOLINONES, PHARMACEUTICAL COMPOSITIONS CONTAINING THE SAME, AND METHODS OF USING THE SAME” (Repare Therapeutics Inc., priority 2022, published 2023)

The compounds below were run against recombinant human Myt1 (Homo sapiens (Human), UniProt Q99640) (assay: Myt1 enzymatic assay (ADP-Glo kinase assay)). Settings: recombinant human Myt1 18 nM, ATP 10 μM.
Type: biochemical
Experimental: Detection of Myt1 kinase activity utilized a recombinant human Myt1 kinase assay measuring the hydrolysis of ATP using a commercially available ADP-Glo Assay (ADP-Glo™ Kinase Assay from Promega, 10 000 assays, #V9102). Briefly, 5 μL recombinant human Myt1 (full length PKMYT1 recombinant human protein expressed in insect cells from Thermo Fisher #A33387; ˜80% purity) was prepared in reaction buffer (70 mM HEPES, 3 mM MgCl2, 3 mM MnCl2, 50 μg/ml PEG 20000, 3 μM Na-orthovanadate, 1.2 mM DTT) and added to 384 well white polystyrene, flat bottom well, non-treated, microplate (Corning #3572). After this, 5 μL of compounds (diluted in reaction buffer to 0.5% DMSO) was added to the microplate and the plate was spun briefly and incubated at 22° C. for 15 minutes. Ultra-Pure Adenosine Triphosphate (ATP) solution (ADP-Glo kit from Promega) was diluted in reaction buffer and 5 μL was added to the microplate, spun down briefly and incubated for 60 minutes at 30° C. The final Myt1 enzyme concentration was 18 nM and the final ATP concentration was 10 μM. After the 60-minute incubation, 15 μL of ADP-Glo reagent was added and the plate was spun briefly and sealed and incubated in the dark for 40 minutes at 22° C. Following this, 30 μL of kinase detection reagent was added per well and the plate was spun briefly, sealed and incubated for 45-60 minutes at 22° C. in the dark. Luminescence was read using the Envision (250 ms integration). The IC50 and the % max inhibition were calculated for each inhibitor compound tested.

Sequence of recombinant human Myt1 (Q99640 whole entry): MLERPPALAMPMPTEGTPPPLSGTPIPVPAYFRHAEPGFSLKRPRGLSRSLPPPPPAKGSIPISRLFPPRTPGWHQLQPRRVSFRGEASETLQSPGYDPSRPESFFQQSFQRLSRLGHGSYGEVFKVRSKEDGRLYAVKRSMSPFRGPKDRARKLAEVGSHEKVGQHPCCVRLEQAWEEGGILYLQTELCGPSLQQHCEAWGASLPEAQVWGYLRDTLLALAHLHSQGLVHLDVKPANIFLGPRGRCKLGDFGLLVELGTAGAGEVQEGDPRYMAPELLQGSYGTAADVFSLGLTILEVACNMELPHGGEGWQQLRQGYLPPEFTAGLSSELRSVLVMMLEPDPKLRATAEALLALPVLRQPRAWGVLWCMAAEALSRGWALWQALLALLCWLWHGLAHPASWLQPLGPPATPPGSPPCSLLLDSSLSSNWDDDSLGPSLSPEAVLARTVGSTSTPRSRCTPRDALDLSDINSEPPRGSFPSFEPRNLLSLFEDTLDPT

Structure (SMILES) | IC50 [nM]
Nc1c(-c2cccc3[nH]ncc23)cc(-c2nccs2)c2nc(C3CCOCC3)[nH]c(=O)c12 [Compound 13] | 1410
Nc1c(-c2cccc3[nH]ncc23)cc(-c2nccs2)c2nc(-c3cccnn3)[nH]c(=O)c12 [Compound 41] | 10
Nc1c(-c2cccc3[nH]ncc23)cc(Br)c2nc(-c3ccc(N4CCN(CCO)CC4)nc3)[nH]c(=O)c12 [Compound 36] | 76
Nc1c(-c2cccc3[nH]ncc23)cc(-c2cnn(C3CCOCC3)c2)c2nc(-c3cccnc3)[nH]c(=O)c12 [Compound 81] | 4
Nc1c(-c2cccc3[nH]ncc23)cc(-c2nccs2)c2nc(C3CC3)[nH]c(=O)c12 [Compound 8] | 131
Cc1ccc(O)cc1-c1cc(-c2nc(C(=O)N3CCOCC3)cs2)c2c(c1N)C(=O)NC2 [Compound 157] | 244
Cc1ccc2[nH]ncc2c1-c1cc(-c2ccc(F)cn2)c2c(c1N)C(=O)NC2 [Compound 62] | 539
Cc1ccc(-c2nc3c(-c4nccs4)cc(-c4cccc5[nH]ncc45)c(N)c3c(=O)[nH]2)cc1 [Compound 3] | 33
Nc1c(-c2cccc3[nH]ncc23)cc(-c2ccc(C(F)(F)F)cc2)c2nc[nH]c(=O)c12 [Compound 125] | 839
Nc1c(-c2cccc3[nH]ncc23)cc(-c2cccc(OCC(=O)O)c2)c2nc[nH]c(=O)c12 [Compound 94] | 46
Cc1ccc(O)cc1-c1cc(-c2ncc(Cl)s2)c2c(c1N)C(=O)NC2 [Compound 156] | 576
Cc1ccc(O)cc1-c1cc(-c2ccccn2)c2nc[nH]c(=O)c2c1N [Compound 137] | 51
Nc1c(-c2cccc3[nH]ncc23)cc(Br)c2nc(-c3ccc(NC4CCOC4)nc3)[nH]c(=O)c12 (stereo not shown) [Compound 19] | 3
COCCOc1ccc(-c2nc3c(Br)cc(-c4cccc5[nH]ncc45)c(N)c3c(=O)[nH]2)cn1 [Compound 103] | 8
Cc1ccc(O)cc1-c1cc(-c2ccccc2)c2c(c1N)C(=O)NC2 [Compound 163, 7-amino-6-(5-hydroxy-2-methyl-phenyl)-4-phenyl-isoindolin-1-one] | 1070
Nc1c(-c2cccc3[nH]ncc23)cc(-c2cccc(OC[C@@H]3CCCO3)n2)c2nc(-c3ccncc3)[nH]c(=O)c12 [Compound 55] | 4
Nc1c(-c2cccc3[nH]ncc23)cc(-c2ccccn2)c2nc[nH]c(=O)c12 [Compound 82] | 35
Cc1ccc(O)cc1-c1cc(-c2nc(C(=O)O)cs2)c2c(c1N)C(=O)NC2 [Compound 162] | 182
Cc1ccc(O)cc1-c1cc(-c2ncc(NC(=O)C3CC3)s2)c2c(c1N)C(=O)NC2 [Compound 142] | 2240
Cc1ccc(O)cc1-c1cc(-c2nc(CN3CCOCC3)cs2)c2c(c1N)C(=O)NC2 [Compound 146] | 135
Cc1ccc2[nH]ncc2c1-c1cc(-c2cccc(OC[C@H]3COCCO3)n2)c2nc[nH]c(=O)c2c1N [Compound 97] | 10
Nc1c(-c2cccc3[nH]ncc23)cc(-c2ncccn2)c2nc[nH]c(=O)c12 [Compound 122] | 170
Cc1ccc(O)cc1-c1cc(-c2ncc(C(=O)N3CCOCC3)s2)c2c(c1N)C(=O)NC2 [Compound 152] | 683
Nc1c(-c2cccc3[nH]ncc23)cc(Br)c2nc[nH]c(=O)c12 [Compound 106] | 24
Cc1ccc2[nH]ncc2c1-c1cc(-c2cccc(OC3CCOCC3)n2)c2nc[nH]c(=O)c2c1N [Compound 110] | 7

Structure (SMILES) | IC50 [nM]
Nc1c(-c2cccc3[nH]ncc23)cc(-c2nccs2)c2nc(CCc3cccnc3)[nH]c(=O)c12 [Compound 112] | 34
Nc1c(-c2cccc3[nH]ncc23)cc(C2CC2)c2nc(-c3cccnc3)[nH]c(=O)c12 [Compound 92] | 7
Cc1ccc(O)cc1-c1cc(-c2nccs2)c2c(c1N)C(=O)NC2 [Compound 93] | 22
Nc1c(-c2cccc3[nH]ncc23)cc(-n2cc3c(n2)CCC3)c2nc(-c3ccncc3)[nH]c(=O)c12 [Compound 86] | 18
Nc1c(-c2cccc3[nH]ncc23)cc(Br)c2nc(-c3ccc(NC4COC4)nc3)[nH]c(=O)c12 [Compound 35] | 29
Nc1c(-c2cccc3[nH]ncc23)cc(-c2cccnn2)c2nc[nH]c(=O)c12 [Compound 131] | 70
N#Cc1cccc(-c2nc3c(-c4nccs4)cc(-c4cccc5[nH]ncc45)c(N)c3c(=O)[nH]2)c1 [Compound 21] | 6
Nc1c(-c2cccc3[nH]ncc23)cc(-c2cccc(OCCN3CCOCC3)n2)c2nc(-c3ccncc3)[nH]c(=O)c12 [Compound 50, 5-amino-6-(1H-indazol-4-yl)-8-[6-(2-morpholinoethoxy)-2-pyridyl]-2-(4-pyridyl)-3H-quinazolin-4-one] | 2
Cc1ccc(O)cc1-c1cc(-c2nc(C(F)(F)F)cs2)c2c(c1N)C(=O)NC2 [Compound 149] | 682
CN1CCN(c2cc(-c3nc4c(Br)cc(-c5cccc6[nH]ncc56)c(N)c4c(=O)[nH]3)ccn2)CC1 [Compound 38] | 10
Cc1nc2c(-c3nccs3)cc(-c3cccc4[nH]ncc34)c(N)c2c(=O)[nH]1 [Compound 9] | 47
CC(=O)Nc1ccc(-c2nc3c(-c4nccs4)cc(-c4cccc5[nH]ncc45)c(N)c3c(=O)[nH]2)cc1 [Compound 17] | 78
Nc1c(-c2cccc3[nH]ncc23)cc(-c2cnn(C3CC3)c2)c2nc(-c3ccncc3)[nH]c(=O)c12 [Compound 72] | 3
Nc1c(-c2cccc3[nH]ncc23)cc(Br)c2nc(-c3ccc(N4CCCCC4CO)nc3)[nH]c(=O)c12 (stereo not shown) [Compound 44] | 11
Cc1ccc(O)cc1-c1cc(-c2ncccn2)c2c(c1N)C(=O)NC2 [Compound 108] | 73
Nc1c(-c2cccc3[nH]ncc23)cc(Br)c2nc(-c3ccc(N4CCNCC4)nc3)[nH]c(=O)c12 [Compound 10] | 3
COCCNc1ccc(-c2nc3c(Br)cc(-c4cccc5[nH]ncc45)c(N)c3c(=O)[nH]2)cn1 [Compound 29] | 3
Nc1c(-c2cccc3[nH]ncc23)cc(-c2nccs2)c2nc(Oc3ccccc3)[nH]c(=O)c12 [Compound 165, 5-amino-6-(1H-indazol-4-yl)-2-phenoxy-8-(thiazol-2-yl)quinazolin-4(3H)-one] | 596
Cc1ccc(O)cc1-c1cc(Br)c2nc[nH]c(=O)c2c1N [Compound 138] | 41
COCCNc1cc(-c2nc3c(Br)cc(-c4cccc5[nH]ncc45)c(N)c3c(=O)[nH]2)ccn1 [Compound 37] | 11
CS(=O)(=O)c1ccc(-c2nc3c(-c4nccs4)cc(-c4cccc5[nH]ncc45)c(N)c3c(=O)[nH]2)cc1 [Compound 14] | 6
Nc1c(-c2cccc3[nH]ncc23)cc(-n2ccc(C3CC3)n2)c2nc(-c3cccnc3)[nH]c(=O)c12 [Compound 74, 5-amino-8-(3-cyclopropylpyrazol-1-yl)-6-(1H-indazol-4-yl)-2-(3-pyridyl)-3H-quinazolin-4-one] | 11
CC(=O)N1CC=C(c2cc(-c3cccc4[nH]ncc34)c(N)c3c(=O)[nH]c(-c4ccncc4)nc23)CC1 [Compound 57] | 2
Nc1ccc(-c2nc3c(-c4nccs4)cc(-c4cccc5[nH]ncc45)c(N)c3c(=O)[nH]2)cc1 [Compound 16] | 54
